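Grown in 96-well plates, cells were treated for 48 hours with each compound at five concentrations. Insufficient inhibition: endpoint recorded as highest concentration tested. GI50 = concentration required for 50% inhibition of growth.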 Activity calls are given as the source filed them. Rule as the data show it: active = GI50 up to about 1.1 µM and inactive = higher.
How the values were obtained:
Assay in all cases: growth of human tumour cells (NCI), 48 h
[1] = tested on: Malme-3M
[2] = tested on: NCI-H23
[3] = tested on: OVCAR-8
[4] = tested on: TK-10
[5] = tested on: CCRF-CEM
[6] = tested on: M14
[7] = tested on: BT-549
[8] = tested on: PC-3
[9] = tested on: UO-31
[10] = tested on: SNB-75
[11] = tested on: SF-295
[12] = tested on: UACC-257
[13] = tested on: HCT-15
[14] = tested on: A498
[15] = tested on: OVCAR-4
[16] = tested on: SF-268
[17] = tested on: HCT-116
[18] = tested on: RPMI-8226
[19] = tested on: HL-60
[20] = tested on: COLO 205
[21] = tested on: HOP-92
[22] = tested on: NCI-H522
[23] = tested on: MDA-N
[24] = tested on: LOX IMVI
[25] = tested on: SK-MEL-2
[26] = tested on: DU-145
[27] = tested on: RXF 393
[28] = tested on: SNB-19
[29] = tested on: HOP-62
[30] = tested on: MDA-MB-435
[31] = tested on: ACHN
[32] = tested on: SK-MEL-5
[33] = tested on: A549
[34] = tested on: EKVX
[35] = tested on: U-251
[36] = tested on: K562
[37] = tested on: SR
[38] = tested on: NCI/ADR-RES
[39] = tested on: HT-29
[40] = tested on: SF-539
[41] = tested on: HCC 2998
[42] = tested on: UACC-62
[43] = tested on: MOLT-4
[44] = tested on: SN12C
[45] = tested on: SK-MEL-28
[46] = tested on: IGROV-1
[47] = tested on: T47D
[48] = tested on: NCI-H226
[49] = tested on: SK-OV-3
[50] = tested on: Hs-578T
[51] = tested on: NCI-H460
[52] = tested on: OVCAR-5
[53] = tested on: SW-620
[54] = tested on: MDA-MB-231
[55] = tested on: 786-0
[56] = tested on: CAKI-1
[57] = tested on: KM12
[58] = tested on: OVCAR-3
[59] = tested on: MCF7

## COc1cccc(OC)c1/C=C1\OC(=O)c2cccc(OC)c21
[1]
  GI50: 3.42 µM (inactive)
[2]
  GI50: 19.4 µM (inactive)
[3]
  GI50: 4.59 µM (inactive)
[4]
  GI50: 11.5 µM (inactive)
[5]
  GI50: 3.84 µM (inactive)
[6]
  GI50: 4.1 µM (inactive)
[7]
  GI50: 5.22 µM (inactive)
[8]
  GI50: 4.72 µM (inactive)
[9]
  GI50: 5.47 µM (inactive)
[10]
  GI50: 2.96 µM (inactive)
[11]
  GI50: 3.13 µM (inactive)
[12]
  GI50: 7.43 µM (inactive)
[13]
  GI50: 2.24 µM
[14]
  GI50: 4.14 µM (inactive)
[15]
  GI50: > 30.1 µM (inactive)
[16]
  GI50: 6.4 µM (inactive)
[17]
  GI50: 3.87 µM (inactive)
[18]
  GI50: 3.46 µM (inactive)
[19]
  GI50: 0.931 µM (active)
[20]
  GI50: 2.88 µM (inactive)
[21]
  GI50: 8.69 µM (inactive)
[22]
  GI50: 2.5 µM (inactive)
[23]
  GI50: 0.596 µM (active)
[24]
  GI50: 6.28 µM (inactive)
[25]
  GI50: 4.14 µM (inactive)
[26]
  GI50: 5.32 µM (inactive)
[27]
  GI50: 4.61 µM (inactive)
[28]
  GI50: 4.74 µM (inactive)
[29]
  GI50: 5.62 µM (inactive)
[30]
  GI50: 0.526 µM (active)
[31]
  GI50: 8.59 µM (inactive)
[32]
  GI50: 3.13 µM (inactive)
[33]
  GI50: 7.36 µM (inactive)
[34]
  GI50: 10.3 µM (inactive)
[35]
  GI50: 3.32 µM (inactive)
[36]
  GI50: 0.527 µM (active)
[37]
  GI50: 0.92 µM (active)
[38]
  GI50: 3.51 µM (inactive)
[39]
  GI50: 2.11 µM (inactive)
[40]
  GI50: 2.3 µM (inactive)
[41]
  GI50: 3.16 µM (inactive)
[42]
  GI50: 2.62 µM (inactive)
[43]
  GI50: 5.64 µM (inactive)
[44]
  GI50: 20 µM (inactive)
[45]
  GI50: 6.7 µM (inactive)
[46]
  GI50: 4.71 µM (inactive)
[47]
  GI50: 5.33 µM (inactive)
[48]
  GI50: 3.84 µM (inactive)
[49]
  GI50: 5.2 µM (inactive)
[50]
  GI50: 3.96 µM (inactive)
[51]
  GI50: 2.65 µM (inactive)
[52]
  GI50: 13.2 µM (inactive)
[53]
  GI50: 3.37 µM (inactive)
[54]
  GI50: 12.8 µM (inactive)
[55]
  GI50: 5.02 µM (inactive)
[56]
  GI50: 4.68 µM (inactive)
[57]
  GI50: 1.74 µM (inactive)
[58]
  GI50: 2.51 µM (inactive)
[59]
  GI50: 3.14 µM (inactive)

Source: ChEMBL document CHEMBL1201862, “PubChem BioAssay data set” (2004)
